Test results taken from patent US11311560B2, “Cyclic plasmenylethanolamines” (MED-LIFE DISCOVERIES LP, priority 2017, dated 2022).

Test system: Pex7 homozygous hypomorphic animals (Pex7^neo/neo)
Assay: 2 week comparison of plasmalogen precursors: plasmalogen levels in plasma and liver (LC-MS)
Assay type: in vivo, mouse
Method: Pex7 homozygous hypomorphic animals (Pex7^neo/neo) were used as a model of rhizomelic chondrodysplasia punctata (RCDP). Mice were dosed with either PPI-1011 or PPI-1040 at equimolar concentrations of 100 mg/Kg and 89.7 mg/Kg respectively. PPI-1011 was formulated in Neobee M-5, at a concentration of 12.5 mg/mL and stored at −20° C. until the first treatment day after which point the remaining formulation was stored at 4° C. Oral gavage volumes were adjusted by mouse weight to ensure a 100 mg/kg dose. PPI-1040 was stored in a sealed ampoule in solution with dichloromethane under argon gas until immediately before use. At time of treatment the ampoule was opened and dichloromethane was evaporated off under nitrogen gas for 10 minutes. Neobee M-5 was then added and the solution and vortexed to generate a 22.4 mg/mL formulation. Animals were dosed via intraperitoneal injections with doses adjusted by weight to ensure an 89.7 mg/Kg dose to each animal. Animals were sacrificed 24 hours after the ninth treatment (week 1-Monday to Friday and week 2-Monday to Thursday). Blood samples were collected in EDTA tubes and then spun down in a clinical centrifuge. Plasma samples were stored at −80° C. until thawed for analysis. Tissue samples were harvested and flash frozen in liquid nitrogen and then stored at −80° C. All tissue samples were homogenized using liquid nitrogen, generating a fine powder.
Plasma aliquots of 20 μL were analyzed, while tissues were aliquoted with anti-static polypropylene disposable milligram scoops prior to analysis. Water (200 μL) was added and samples were ice bath sonicated for 30 mins prior to the addition of 600 μL of ethyl acetate. Samples were mixed at 2000 rpm for 15 mins followed by a 10 min centrifugation at 3500 rpm. Tissue samples were diluted into an ethyl acetate (1:4) containing labeled internal standards [^13C-PlsEtn (C37^13C6H74NO7P) and ^13C-PtdEtn (C24^13C19H74NO8P)]. Water (80 μL) was added and samples were again stirred at 2000 rpm for 15 mins followed by a 2 min centrifugation at 3500 rpm. High-throughput analysis method was based on multiple reaction monitoring of one parent/fragment transition for the ion pairs, performed using liquid chromatography-mass spectrometry.

[1] = 89.7 mg/Kg intraperitoneal, 2 weeks
[2] = PPI-1011 100 mg/Kg oral or PPI-1040 89.7 mg/Kg intraperitoneal, 2 weeks

What does the source list for `CC/C=C\C/C=C\C/C=C\C/C=C\C/C=C\C/C=C\CCC(=O)OC(CO/C=C\CCCCCCCCCCCCCC)COP1(=O)NCCO1` (centres unmarked) [PPI-1040, 1-(((Z)-hexadec-1-en-1-yl)oxy)-3-((2-oxido-1,3,2-oxazaphospholidin-2-yl)oxy)propan-2-yl (4Z,7Z,10Z,13Z,16Z,19Z)-docosa-4,7,10,13,16,19-hexaenoate]?
bioavailability and conversion to endogenous ethanolamine plasmalogen [1]: bioavailable in the mouse; total 16:0 plasmalogen pool in plasma [1]: augmented the total 16:0 plasmalogen to control levels; 16:0 plasmalogen pool in liver [2]: augmented the 16:0 plasmalogen pool in the liver to control levels; target plasmalogen (16:0/22:6) levels in liver [2]: to levels above control; levels of the target plasmalogen (16:0/22:6) in the plasma (PPI-1040 89.7 mg/Kg intraperitoneal, 2 weeks (9 treatments)): 2 × above control
